Values after ≈ are worked out from the molar mass of the structure shown.
Key:
Assay type in all cases: physicochemical
[1] = Solubility in PEG400 based vehicles
[2] = Nine months stability study in PEG400 based LSF; details: nine months at 25 and 40° C.
[3] = Stability in PEG6000 melt; details: 20% drug load, minimally two months, room temperature
Method: Nine parts of PEG6000 were melted in an aluminium cup (70° to 90° C.). One part of (2R)-2-(4-fluorophenyl)-N-[4-(2-{[2-methoxy-4-(methylsulfonyl)phenyl]-amino}[1,2,4]triazolo[1,5-a]pyridin-6-yl)phenyl]propanamide was added to the PEG 6000 melt. The mixture was stirred with a glass stick at approximately 90° C. After complete dissolution of (2R)-2-(4-fluorophenyl)-N-[4-(2-{[2-methoxy-4-(methylsulfonyl)phenyl]amino}[1,2,4]triazolo[1,5-a]pyridin-6-yl)phenyl]propanamide, the melt was cooled down by embedding the cup in a ice-water/NaCl mixture for several minutes. The solidified melt was pestled. (2R)-2-(4-fluorophenyl)-N-[4-(2-{[2-methoxy-4-(methylsulfonyl)phenyl]-amino}[1,2,4]triazolo[1,5-a]pyridin-6-yl)phenyl]propanamide is stable in PEG6000 melt with 20% drug load for minimally two months at room temperature.

With `COc1cc(S(C)(=O)=O)ccc1Nc1nc2ccc(-c3ccc(NC(=O)[C@H](C)c4ccc(F)cc4)cc3)cn2n1` [compound A, (2R)-2-(4-fluorophenyl)-N-[4-(2-{[2-methoxy-4-(methylsulfonyl)phenyl]-amino}[1,2,4]triazolo[1,5-a]pyridin-6-yl)phenyl]propanamide] the solubility ([1]; aqueous with cosolvent or surfactant or cyclodextrin, in PEG400/PVP/water 8:1:1) was ~25 mg/mL (≈ 44.7 mM), the solubility ([1]; organic solvent or mixture, in PEG400/PVP 8:2) was ~25 mg/mL (≈ 44.7 mM) and the solubility ([1]; organic solvent or mixture, in PEG400 based LSF (PEG400/Tween 80/L-Menthol 97:2, 5:0, 5)) was ~25 mg/mL (≈ 44.7 mM). The “stability in PEG400 based LSF” value [2] was “no significant time dependant instability” and the “stability in PEG6000 melt” value [3] was “stable”.

— patent US20160120854A1, “PHARMACEUTICAL COMPOSITIONS” (BAYER PHARMA AKTIENGESELl SCHAFT, priority 2013, published 2016)
